Values quoted from earlier work as cited in patent publication US9200991B2, “Sorptive extraction layer for immobilized liquid extraction” (Tecan Trading AG, priority 2013, dated 2015).

reported logP: approximately 3.8
SMILES: CC(C)Cc1ccc(C(C)C(=O)O)cc1 (stereo not shown) [Ibuprofen]
